# Earlier results, collected in patent US7435725B2, “Oral compositions and methods for prevention, reduction and treatment of radiation injury” (The Quigly Corporation, priority 2001, dated 2008).
# Tests used:
# [1] = test system: Salmonella Typhimurium TA98 and TA 1538; conditions: Trp-P-2 (3-amino-1-methyl-5H-pyrido(4,3-b)indole)
# [2] = test system: E. coli B/r WP2 trp-
smiles,measurement,setting,value
[Ge+4].[O-2].[O-2] [Germanium oxide],reduction of mutation rate induced by Trp-P-2,[1],40-67 folds
O=C(O)C[CH2][Ge](=[O])[O][Ge](=[O])[CH2]CC(=O)O [Ge-132],reduction of mutations due to γ-radiation,[2],twenty-fold
